Here are results for one compound from PMC11920646 (Frontiers in Pharmacology, 2025).

By ED50 is commonly meant the midpoint of the dose-response relation. As usually defined, the IC50 is the point on the concentration scale where inhibition reaches its midpoint. A low value points to inhibition by little substance.

In data set [1] the test system is SCW-induced ankle inflammation in female Lewis rats. Kind of data set: Rat streptococcal cell wall (SCW) model of joint inflammation. Format: in vivo.
Description: Female Lewis rats (150–200 g, Charles River, United Kingdom) were used for the model of joint inflammation (see Supplementary Material for animal care), with in vivo efficacy assays conducted at the Saretius Ltd., Science and Technology Centre (Reading, United Kingdom). Monoarticular joint inflammation was induced on Day −21 by intra-articular injection of 10 μg of streptococcal cell wall (SCW) extract (Lee Laboratories, BD Scientific, Franklin Lakes, NJ, United States) into the left hind ankle joint. […] Treatments, including control, were administered orally once daily on Days −1 to 6 of the study. Additionally, on Day 0, each rat received an intravenous (IV) dose of 100 μg SCW extract 2 h after oral dosing. IV injections were given after rats had spent up to 10 min in a 40°C hot box (Thermacage MK2, Datesand Ltd., Manchester, United Kingdom).
Rat ankle diameters were measured using digital calipers (Mitutoyo, United Kingdom, Model: CDS6CX), mechanical allodynia tested using von Frey hairs, and rats weighed, per the schedule in Supplementary Table S2. […] On Day 6, rats were euthanized by a schedule 1 method (carbon dioxide) and terminal blood samples collected by cardiac puncture. After centrifugation to obtain plasma supernatant (10,000 rpm, 3 min), plasma was stored at −20°C until analysis. […] Glucose test strips (Roche Accu-Check with Aviva blood glucose system meter) were used to measure blood glucose levels at the time blood was drawn. All data were analyzed with Statistica v11 software (StatSoft Inc., Tulsa, OK, United States), using the Kolmogorov-Smirnov test to assess normality of distribution (see Supplementary Material for further detail), and to determine total area under the concentration-time curve (AUC) using the trapezoidal method. […] The effect of each treatment on ankle inflammation was determined by the reduction in ipsilateral ankle AUC versus control.
Data that was not normally distributed were analyzed with Kruskal-Wallis analysis of variance (ANOVA) followed by Dunn’s multiple comparisons tests. Normally distributed data were analyzed with repeated measures ANOVAs as appropriate, one-way ANOVAs and Dunnett’s post hoc tests.
For data set [2], the system named is LPS-induced TNF-α release in rat whole blood. Description: Inhibition of LPS-induced TNF-α release in rat whole blood. Format: cell-based. The following applies: 18 h.
Description: Arterial blood was collected from male Sprague-Dawley rats (180–250 g; Janvier Labs, Le Genest-Saint-Isle, France) in heparin syringes. […] Plasma was collected via centrifugation and TNF-α measured using a TNFalpha Kit (PerkinElmer, Waltham, MA, United States), according to manufacturers’ instructions, and a microplate reader (EnVision Multilabel Reader®, PerkinElmer; Supplementary Material). The IC50 values for inhibition of TNF-α release were calculated by fitting concentration response curves to a four parameter nonlinear regression model using ActivityBase (XLfit® software; ID Business Solutions Ltd.). […] In addition, IC50,free values were determined by correcting the IC50 values for plasma protein binding (PPB); see the Supplementary Material for the calculation.
The immuno-assay-buffer provided in the kit was diluted 1:10 in water and the mouse TNF-α analyte standard was diluted in rat plasma (30,000–4 pg/mL). […] After a 30-min incubation at room temperature, the plates were read using an EnVision Multilabel Reader® (PerkinElmer) equipped with the ALPHA option using the AlphaScreen standard settings. […]
Data set [3] deals with T1, human GR (Homo sapiens, UniProt P04150).
T1 construct: host or cells: CHO (DSMZ ACC-110), CHO-Gal4/GR
T1 sequence (P04150 524-758 limits assumed): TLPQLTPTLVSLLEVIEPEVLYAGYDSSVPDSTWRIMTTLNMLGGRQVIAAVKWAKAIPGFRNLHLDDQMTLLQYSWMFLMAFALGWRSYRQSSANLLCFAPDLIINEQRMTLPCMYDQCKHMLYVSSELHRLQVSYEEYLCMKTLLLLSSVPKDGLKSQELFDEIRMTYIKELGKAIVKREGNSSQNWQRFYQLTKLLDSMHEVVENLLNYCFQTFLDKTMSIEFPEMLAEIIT
Description: GR reporter gene (transactivation) assay, CHO-Gal4/GR. Format: cell-based. To be noted: % of reference agonist beclomethasone. The text has this: To create the CHO-Gal4/GR, CHO-Gal4/PR, and CHO-Gal4/MR reporter cell lines, first CHO cells were stably transfected with a GAL4-UAS-luciferase reporter construct. Then, the LBD of the GR, PR, or MR (GR Gene ID: 2908, PR Gene ID: 5241, MR Gene ID: 4306, respectively) was cloned into pIRES2-EGFP-GAL4 containing the DBD of GAL4 from pFA-AT2, and then co-transfected into the luciferase-reporter construct-containing CHO cells. These reporter cell lines express the respective nuclear hormone receptor LBD-DBD fusion proteins that control luciferase expression of a GAL4-upstream activation sequence (UAS)-luciferase reporter construct, allowing for detection of ligand- or compound-induced transactivation at the GR, PR, or MR by measuring luciferase activity.
Cryo-preserved CHO-Gal4/GR, CHO-Gal4/PR, and CHO-Gal4/MR cells were plated in medium at 7,500 cells/well in 384-well assay plates (25 μL/well), and incubated for 24 h. […] Following a 4-h incubation, cells were lysed and luminescence measured using the EMCCD camera FLIPR®Tetra (Molecular Devices, Silicon Valley, CA, United States).
Transactivation (i.e., gene activation) was expressed as a percentage of the reference agonist activity (Supplementary Material), using Genedata Screener® v15.0.5 software (Basel, Switzerland).
Transactivation was calculated according to this equation: […]

In data set [4] the test system is OPG release in human osteoblast cell line MG-63. Description: Inhibition of OPG release in MG-63 osteoblast cells. The format is cell-based. To be noted: MG-63 cells, 24 h. On the procedure:
([Humphrey et al., 2006]). […] After a 24-h incubation in standard conditions, supernatant was collected and OPG measured using the human osteoprotegerin/TNFRSF11B DuoSet® ELISA (R&D Systems, Minneapolis, MN, United States), according to the manufacturer’s instructions (Supplementary Material). A 3-parameter nonlinear regression was performed using GraphPad PRISM v7.03 software (Graphpad Software Inc.) to determine IC50 values.
All incubations in this assay were conducted at room temperature. Anti-OPG capture antibodies, diluted in Dulbecco's phosphate-buffered saline (DPBS), were transferred into a coated 96-well plate (100 µL/well). After overnight incubation, and triplicate washing (400 µL/well) with wash buffer (0.05% Tween 20 in DPBS, pH 7.2–7.4), 300 µL of Reagent Diluent (1% bovine serum albumin [BSA] in DPBS) was added, followed by a 1-h incubation, and thereafter three washing steps again. Then, 100 µL of supernatant, standard or reagent diluent were added per well for a 2-h incubation. After repeating three washing steps, 100 µL of detection antibody diluted in reagent diluent (including normal goat serum) were added to each well, followed by a 2-h incubation. After repeating three washing steps, 100 µL of Streptavidin conjugated to horseradish-peroxidase solution was added per well for a 20-min incubation. Finally, 50 µL/well of stop solution was added. After gently shaking of the plate to ensure thorough mixing, the optical density of each well was determined immediately using the Eon™ Microplate Spectrophotometer (Bio Tek Instruments) set at 450 nm.
Supplementary Figure S2. […] Error bars indicate standard error of the mean. […] Log c, log concentration.

The test system of data set [5] is IL-6 release in A549 cells. Details: method as in Hu et al., 2011. To be noted: dagrocorat study ref Hu et al., 2011; cited from earlier work.
Data set [6] relates to LPS-induced IFN-γ release in human whole blood. Kind of data set: Inhibition of LPS-induced IFN-γ release in human whole blood. Format: cell-based. The following applies: 24 h.
Description: Appropriate control wells were included (2 μL DMSO ± LPS). Subsequently, 1 mL of whole blood solution from each well was incubated at 37°C for 24 h in LPS-containing culture tubes, where final test compound concentrations were 0.0032, 0.016, 0.08, 0.4, 2, and 10 μM. Culture supernatant was harvested using the Seraplas® V11 valve filter (Sarstedt, Nümbrecht, Germany) and IFN-γ determined using validated methods with the V-PLEX assay (V-PLEX Proinflammatory Panel 1 Human Kit, Meso Scale Discovery, Rockville, MD, United States), as shown in Supplementary Table S1. […] IC50 values corrected for PPB were also determined, giving IC50,free values (using the same formula as for the TNF-α assay in rat whole blood).

Where “and” joins values, the source holds several entries; their conditions need not be identical. Equal values may be shown once.

For `C[C@]12C=CC(=O)C=C1CC[C@@H]1[C@@H]2[C@@H](O)C[C@@]2(C)[C@H]1CC[C@]2(O)C(=O)CO` [Prednisolone], the “change in blood glucose AUC2.5–24h versus vehicle” value in data set [1] (Day 5, GRM-01 any dose 0.01–1 mg/kg/day, prednisolone 30 mg/kg/day) is on record as “statistically significant increase”. The “blood glucose at time points post dose versus vehicle” value in data set [1] (Day 5, GRM-01 at 2.5 h, all doses except 0.03 mg/kg/day, not dose dependent, prednisolone 30 mg/kg/day at 2.5, 4 and 6 h) was “significantly higher blood glucose levels”. Moreover, in data set [1] (Day 6, GRM-01 significant at 0.3 mg/kg/day (p < 0.01), prednisolone 30 mg/kg/day (p < 0.01)), the “effect on plasma corticosterone levels vs vehicle” value is given as “reduced plasma corticosterone levels”. The “antinociceptive effect (ipsilateral paw withdrawal threshold vs vehicle)” value in data set [1] (GRM-01 0.1, 0.3, 1 mg/kg/day, prednisolone 30 mg/kg/day) is recorded as “demonstrated an antinociceptive effect”. Moreover, the 50% effective dose (ED50) in data set [1] (rat SCW model, separate and independent study, doses 0.003–30 mg/kg, read-out: ED50, change in AUC of ankle diameter) amounted to 2.49 mg/kg. The values for the IC50 in data set [2], in data set [4] (Homo sapiens) and in data set [6] were 8.1 ± 2.1 nM, 3.1 ± 4.3 nM and 13.4 ± 7.95 nM, respectively. The “Inhibition of LPS-induced TNF-α release” value in data set [2] is 99 ± 3%. Moreover, the “GR transactivation, mean activation (efficacy)” value in data set [3] is 80.5% and 80.5 ± 2.2%. Besides, the “Inhibition of OPG release (maximal level)” value in data set [4] was 100 ± 0%; in data set [4] (listed as prednisolone), “fully inhibiting OPG release”. The “inhibition of IL-6 release in A549 cells” value in data set [5] is 100%. In addition, the “Inhibition of LPS-induced IFN-γ release” value in data set [6] was 99.3 ± 2.8%; in data set [6] (listed as prednisolone), 99%.
